Values quoted from earlier work in patent US20110184060A1, “ORAL DOSAGE FORMS HAVING A HIGH LOADING OF A TRANEXAMIC ACID PRODRUG” (XenoPort, Inc., priority 2010, published 2011).
Where two headings read alike, the source gives them in different places. Each block holds one compound with its values, some of them ahead of it.

How the values were obtained:
[1] = human subjects, prodrug
[2] = statement in words, no data given
[3] = not given; remark: listed apart in the source

SMILES: CCOC(=O)OC(C)OC(=O)[C@H]1CC[C@H](CN)CC1 (relative stereo) [Kabi 2161, 1-(ethoxycarbonyl)oxyethyl trans-4-(aminomethyl)-cyclohexane carboxylate]
- oral bioavailability of tranexamic acid [1]: improved oral bioavailability of tranexamic acid

SMILES: CC(OC(=O)NC[C@H]1CC[C@H](C(=O)O)CC1)OC(=O)C(C)C (stereo partly drawn) [Compound (1), 4-({[(2-methylpropanoyloxy)ethoxy]carbonylamino}methyl)cyclohexanecarboxylic acid]
- oral bioavailability of tranexamic acid [2]: high oral bioavailability of tranexamic acid

- oral bioavailability (oral tranexamic acid): about 30%
- terminal elimination half life (tranexamic acid): about 2 hours
SMILES: NC[C@H]1CC[C@H](C(=O)O)CC1 [tranexamic acid, trans-4-(aminomethyl)-cyclohexanecarboxylic acid]
- reduction of post-operative bleeding ([3]; cardiopulmonary bypass surgery, prophylactic administration of lysine analogs such as tranexamic acid): 30-40%
- reduction of total blood loss ([3]; subjects undergoing total knee arthroplasty, prophylactic administration): up to 50%
